Laboratory results reported in patent US20140256660A1, “ANTIBIOTIC CONJUGATES LINKED WITH STEROID DRUGS” (Allergan, Inc., priority 2013, published 2014).

Tested on: human recombinant carboxylesterases
Test: In vitro metabolic stability (rate of metabolite formation) in human recombinant carboxylesterases
Assay type: in vitro ADME
Details: human recombinant carboxylesterases 0.1 mg/mL, 1 μM test compound, pH 6.0, 37° C.
Method: Dutch Belted rabbits were euthanized with an overdose of sodium pentobarbital. The corneas were collected and homogenized in ice-cold potassium chloride solution (pH=7.4). The homogenate was centrifuged at 755×g for 30 min at 4° C. and aliquots of the supernatant were stored at or below −70° C. until metabolism experiments were conducted. Prior to storing the homogenates an aliquot was removed for determination of protein concentrations by calculating the 260 nm absorbance using a spectrophotometer. Human recombinant carboxylesterases were purchased from a commercial vendor (BD Gentest™, Bedford, Mass.)
All metabolic stability experiments were performed in triplicate in 96-well plate format. The final incubation mixture contained 1 μM test compound, 0.3 mg/mL corneal protein homogenate or 0.1 mg/mL human recombinant carboxylesterase mixture in a final volume of 0.5 mL 0.1 M potassium phosphate buffer (pH=6.0). The final percentage of solvent in the incubation was less than 1.0% to prevent inhibition of enzymatic activity. Following a pre-incubation at 37° C., test article (i.e. ester linked hybrids) was added to initiate the reaction. At designated time points (typically less than 60 minutes to capture the linear range of metabolite formation), 0.05 mL aliquots were removed from the incubation mixtures using a clean pipet tip and immediately placed in organic solvent to stop any esterase activity.
Hydrolysis of the metabolites was confirmed to be due to esterase activity and not chemical lability. The samples were analyzed by liquid chromatography with mass spectrometry (LC-MS/MS) detection to determine the metabolite concentrations resulting from the metabolism of ester linked hybrids. Internal standards were used to compensate for variability from sample processing, chromatographic elution, mass spectrometer response and ion suppression by matrix components.

| Compound | Rate of formation Metabolite 2 (Moxifloxacin) | Rate of formation Metabolite 1 (Prednisolone) | other results |
| --- | --- | --- | --- |
| COc1c(N2CC3CCCN(C(=O)OCOC(=O)CCC(=O)N[C@@H](C(=O)OCC(=O)[C@]4(O)CCC5C6CCC7=CC(=O)C=C[C@@]7(C)C6[C@H](O)C[C@]54C)C(C)C)C3C2)c(F)cc2c(=O)c(C(=O)O)cn(C3CC3)c12 (relative stereo) [Compound 61, rel-1-cyclopropyl-7-{1-[(10R)-14-[(10S,11R,13R,17S)-11,17-dihydroxy-10,13-dimethyl-3-oxo-6,7,8,9,10,11,12,13,14,15,16,17-dodecahydro-3H-cyclopenta[a]phenanthren-17-yl]-5,8,11,14-tetraoxo-10-(propan-2-yl)-2,4,12-trioxa-9-azatetradecan-1-oyl]octahydro-6H-pyrrolo[3,4-b]pyridin-6-yl}-6-fluoro-8-methoxy-4-oxo-1,4-dihydroquinoline-3-carboxylic acid] | 18.5 ± 1.7 nM/min/mg | 11.8 ± 0.5 nM/min/mg |  |
| COc1c(N2C[C@@H]3CCCN[C@@H]3C2)c(F)cc2c(=O)c(C(=O)OCOC(=O)OCC(=O)[C@]3(O)CC[C@@H]4[C@H]5CCC6=CC(=O)C=C[C@@]6(C)C5[C@H](O)C[C@]43C)cn(C3CC3)c12 (relative stereo) [Compound 64, [({2-[(8R,10S,11R,13R,14R,17S)-11,17-dihydroxy-10,13-dimethyl-3-oxo-6,7,8,9,10,11,12,13,14,15,16,17-dodecahydro-3H-cyclopenta[a]phenanthren-17-yl]-2-oxoethoxy}carbonyl)oxy]methyl rel-1-cyclopropyl-6-fluoro-8-methoxy-7-[(4aS,7aS)-octahydro-6H-pyrrolo[3,4-b]pyridin-6-yl]-4-oxo-1,4-dihydroquinoline-3-carboxylate] | 644 ± 20 nM/min/mg | 641 ± 22 nM/min/mg |  |
| COc1c(N2C[C@@H]3CCCN[C@@H]3C2)c(F)cc2c(=O)c(C(=O)OC(C)OC(=O)OCC(=O)[C@]3(O)CC[C@@H]4[C@H]5CCC6=CC(=O)C=C[C@@]6(C)C5[C@H](O)C[C@]43C)cn(C3CC3)c12 (relative stereo) [Compound 65, 1-[({2-[(8R,10S,11R,13R,14R,17S)-11,17-dihydroxy-10,13-dimethyl-3-oxo-6,7,8,9,10,11,12,13,14,15,16,17-dodecahydro-3H-cyclopenta[a]phenanthren-17-yl]-2-oxoethoxy}carbonyl)oxy]ethyl rel-1-cyclopropyl-6-fluoro-8-methoxy-7-[(4aS,7aS)-octahydro-6H-pyrrolo[3,4-b]pyridin-6-yl]-4-oxo-1,4-dihydroquinoline-3-carboxylate] | 482 ± 72 nM/min/mg | 364 ± 27 nM/min/mg |  |
| C[C@H]1C[C@H]2[C@@H]3CCC4=CC(=O)C=C[C@]4(C)[C@@]3(F)[C@@H](O)C[C@]2(C)[C@@]1(O)C(=O)COC(=O)CCC(=O)OC[C@@H](NC(=O)C(Cl)Cl)[C@H](O)c1ccc([N+](=O)[O-])cc1 (relative stereo) [Compound 73, (2R,3R)-2-[(dichloroacetyl)amino]-3-hydroxy-3-(4-nitrophenyl)propyl 2-[(8S,9R,10S,11S,13S,14S,16S,17R)-9-fluoro-11,17-dihydroxy-10,13,16-trimethyl-3-oxo-6,7,8,9,10,11,12,13,14,15,16,17-dodecahydro-3H-cyclopenta[a]phenanthren-17-yl]-2-oxoethyl rel-butanedioate] |  |  | Rate of formation Metabolite 1 (Betamethasone) (metabolite Betamethasone): 1440 ± 120 nM/min/mg; Rate of formation Metabolite 2 (Chloramphenicol) (metabolite Chloramphenicol): 107 ± 13 nM/min/mg |
| rel-1-cyclopropyl-6-fluoro-7-[4-(4-{2-[(8R,9S,10R,11R,13R,14R,16S,17S)-9-fluoro-11,17-dihydroxy-10,13,16-trimethyl-3-oxo-6,7,8,9,10,11,12,13,14,15,16,17-dodecahydro-3H-cyclopenta[a]phenanthren-17-yl]-2-oxoethoxy}-4-oxobutanoyl)-3-methylpiperazin-1-yl]-8-methoxy-4-oxo-1,4-dihydroquinoline-3-carboxylic acid [Compound 10] |  |  | Rate of formation Metabolite 1 (Dexamethasone) (metabolite Dexamethasone): 737 ± 28 nM/min/mg; Rate of formation Metabolite 2 (Gatifloxacin) (metabolite Gatifloxacin): 7.71 ± 0.57 nM/min/mg |
